# Source: patent publication US20250313849A1, “OPTOGENETIC INDUCTION OF MEMBRANELESS ORGANELLES” (UNIVERSITY OF PITTSBURGH-OF THE COMMONWEALTH SYSTEM OF …, priority 2017, published 2025)
# Entries after “also recorded” stand apart in the source; their conditions may differ.
# What was measured:
# Type in all cases: cell-based
# HEK293 cells [1] = test: Longitudinal live imaging of light induced stress granule dynamics; details: for dynamics / liquid-like behaviour of light induced stress granules: blue light on/off or chronic
# Experimental: FIG. 15. […] NcVVDY50W-G3BP1 was expressed in HEK293 cells. […] NcVVDY50W-G3BP1 expressing HEK293 cells were longitudinally imaged every 30 seconds and exposed to blue light in between each image for 30 minutes. The light was then removed and cells were imaged every 30 seconds without light in between each image to study the rate of formation and dissociation of the light induced stress granules.
# FIGS. 17A-17B. […] FIG. 17A) NcVVDY50W-G3BP1 was expressed in HEK293 cells. Stress granule formation can be temporally controlled with light stimulation at different voltages. FIGS. 17B) NcVVDY50W-G3BP1 expressing HEK293 cells were longitudinally imaged every 30 seconds and exposed to different voltages (1.0V, or 5.0V, or 10.0V) of blue light in between each image for 30 minutes, over a time-course of 6 hours. The light was then removed and cells were imaged every 30 seconds without light in between each image to study the rate of formation of the light induced stress granules.
# FIGS. 18A-18E. […] NcVVDY50W-G3BP1 was expressed in HEK293 cells. […] Light paradigms were developed to chronically form stress granules with light for up to 18 hours. The light induced stress granules are positive for both key markers such as PABPC1 and sequester mRNA throughout the time course, indicating they are functional. […] No previous study has been able to induce stress granule formation for more than 2-3 hours as the cells die from the treatment to induce stress granules. Thus, these are the first studies to create chronic stress granules for over 2-3 hours.
# (§1) FIGS. 24A-24E. Replacing the G3BP1 NTF2 domain, which is required for G3BP1 self-oligomerization (optoSG), with oligomerizing photoreceptors, is sufficient to initiate the formation of optogenetic stress granules. FIG. 24A) Schematics of an additional approach to seed optoStress Granules (optoSGs) employing truncated G3BP1 protein and replacing the NTF2 oligomerizing domain with a photoreceptor with the capacity to oligomerize (in this instance Cry2-PHR, but also works with chronic stimulation of dimerizing photoreceptor). FIG. 24B) HEK cells expressing Cry2 PHR-[…]NTF-G3BP1 were exposed to blue light LED stimulation for 30 minutes to induce the formation of optoSGs.
# FIGS. 25A-25C. OptoStress Granules (optoSGs) (Cry2-delta NTF-G3BP1) display liquid-like properties of membraneless organelles and colocalize with translation initiation factors and mRNA.
# HEK293 cells [2] = test: Blue light induced stress granules: staining for stress granule markers and mRNA; details: blue light stimulation
# Description: FIGS. 2A-2B. Blue light induced stress granules using a NcVVDY50W-G3BP1 protein arrangement. […] A DNA arrangement that generates the NcVVDY50W-G3BP1 was developed and expressed in HEK293 cells. Under normal conditions, the NcVVDY50W-G3BP1 remains diffuse in the cytoplasm. When endogenous stress granule formation is induced with heat shock, the NcVVDY50W-G3BP1 forms stress granules that stain positive for key markers including Ataxin-2 and TIAR.
# FIG. 5. […] Under normal conditions, G3BP1-NcVVDY50W remains diffuse in the cytoplasm. When endogenous stress granule formation is induced with NaAsO2 (0.5 mM, 30 min treatment), the G3BP1-NcVVDY50W forms stress granules that stain positive for key markers TDP-43 and eIF4G. […] As an example of this technology, DNA arrangements were developed that generated G3BP1-NcVVDY50W, and expressed in HEK293 cells. Under normal conditions, the G3BP1-NcVVDY50W remains diffuse in the cytoplasm. When endogenous stress granule formation is induced with sodium arsenite, the G3BP1-NcVVDY50W forms stress granules that probe positive for key markers, including TDP-43 and eIF4G. […] Inserts are 3D images of stress granules indicated by arrows.
# While stress granule dynamics are shown to be altered in these diseases, the true contributions of stress granules to disease pathobiology is unknown since the only current method to form these organelles is to introduce an extracellular stressor (e.g. heat stress at 43° C., exposure to sodium arsenite) which is toxic to cells and ultimately kills the cells being studied. The longest studies of stress granules to date are only on the order of a few hours and so, the importance of these organelles in the initiation of neurodegeneration or cancer cannot be assessed. Therefore, a method to control stress granule formation was developed using light, without the need for any extracellular stressors. To achieve this, the DNA encoding specific photoreceptor protein domains that self-bind with blue light exposure were linked to the DNA of a key protein required for the formation of stress granules, G3BP1 or TIA1. These arrangements were then expressed in HEK293 cells and were tested for their ability to form functional stress granules with various blue light treatment paradigms. It was shown that the LOV photoreceptor domain, from the Vivid protein of N. crassa, which is known to dimerize with blue light exposure, when fused to G3BP1 and exposed to 15-1080 min of 465 nm light at 0.1-1.0 mW/cm2 initiates the formation of a core stress granule structure consisting of the photoreceptors fused to G3BP1 that recruits additional G3BP1 and accessory proteins that comprise stress granules and allow for their maturation. This likely involved the liquid-liquid phase separation (LLPS) and dimerization and oligomerization of G3BP1 (concept represented in FIG. 1).
# protein synthesis = test: De novo protein synthesis, HPG incorporation with Click-iT detection; details: blue light stimulation; Click-iT detection
# Experimental: FIGS. 14A-14B. […] The major function of endogenous stress granules is to bind mRNAs and halt protein synthesis until the cellular stress is removed. To test this, cells expressing G3BP1-NcVVDY50W were either exposed to blue light stimulation or not for 30 minutes and protein translation was assessed. Prior to the translation assay, cells were treated with cyclohexamide for one hour to inhibit protein synthesis and then the cyclohexamide was removed and cells were provided L-Homopropargylglycine (HPG) for one hour. HPG acts as a methionine amino acid analog and is incorporated into newly synthesized proteins. Click-iT™ chemistry was then performed to detect HPG and cells were imaged. Green signal indicates newly synthesized proteins during the time at which HPG is present in the media.
# as §1
Molecule,dynamics / liquid-like behaviour of light induced stress granules (HEK293 cells [1]; HEK293 cells),"duration of chronically formed stress granules with light (HEK293 cells [1]; HEK293 cells, chronic light, no cell stressors)",colocalization of blue light induced stress granules with stress granule markers (HEK293 cells [2]),mRNA sequestration by blue light induced stress granules (HEK293 cells [2]),protein synthesis (HPG signal) with light-induced stress granules (protein synthesis),"time to optoSG formation (HEK293 cells [1]; HEKs, blue light LED stimulation) [min]"
"NcVVDY50W-G3BP1: NcVivid Y50W with G3BP1 Full Length Protein, SEQ ID NO: 9",repeatedly formed; also recorded: decrease in number and increase in size,up to 18 hours,stained positive for Ataxin-2 and TIAR; also recorded: colocalize with the key stress granule marker eIF3H,sequester cytoplasmic mRNA,–,–
"Cry2 PHR-[…]NTF-G3BP1: Cry2PHR with G3BP1 NTF2 Domain Deletion Mutation, SEQ ID NO: 94 (protein) MKMDKKTIVWFRRDLRIEDNPALAAAAHEGSVFPVFIWCPEEEGQFYPGRASRWWMKQSLAHLSQSLKALGSDLTLIKTHNTISAILDCIRVTGATKVVFNHLYDPVSLVRDHTVKEKLVERGISVQSYNGDLLYEPWEIYCEKGKPFTSFNSYWKKCLDMSIESVMLPPPWRLMPITAAAEAIWACSIEELGLENEAEKPSNALLTRAWSPGWSNADKLLNEFIEKQLIDYAKNSKKVVGNSTSLLSPYLHFGEISVRHVFQCARMKQIIWARDKNSEGEESADLFLRGIGLREYSRYICFNFPFTHEQSLLSHLRFFPWDADVDKFKAWRQGRTGYPLVDAGMRELWATGWMHNRIRVIVSSFAVKFLLLPWKWGMKYFWDTLLDADLECDILGWQYISGSIPDGHELDRLDNPALQGAKYDPEGEYIRQWLPELARLPTEWIHHPWDAPLTVLKASGVELGTNYAKPIVDIDTARELLAKAISRTREAQIMIGAAMGFVTEPQEESEEEVEEPEERQQTPEVVPDDSGTFYDQAVVSNDMEEHLEEPVAEPEPDPEPEPEQEPVSEIQEEKPEPVLEETAPEDAQKSSSPAPADIAQTVQEDLRTFSWASVTSKNLPPSGAVPVTGIPPHVVKVPASQPRPESKPESQIPPQRPQRDQRVREQRINIPPQRGPRPIREAGEQGDIEPRRMVRHPDSHQLFIGNLPHEVDKSELKDFFQSYGNVVELRINSGGKLPNFGFVVFDDSEPVQKVLSNRPIMFRGEVRLNVEEKKTRAAREGDRRDNRLRGPGGPRGGLGGGMRGPPRGGMVQKPGFGVGRGLAPRQKLIPMARRAWLEHGHSCFLCEIVIRSQFHTTYEPEA",exhibit the liquid-like droplet properties of endogenously formed stress granules,–,colocalize with endogenous stress granule markers including PABPC1 and the 40S ribosomal component RPS3; also recorded: colocalize with mature stress granule markers Ataxin2 and eIF4G translational factors,–,inhibit cellular protein synthesis to a similar degree as sodium arsenite induced stress granules,15
